In PubChem BioAssay (NCI):
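Test compounds were applied to cells in 96-well plates for 48 hours at 5 doses. Here, GI50 denotes the concentration required for 50% inhibition of growth. Definition used: TGI = concentration required for complete inhibition of growth.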

Key:
Assay in all cases: NCI-60 cell line screen, 48 h
[1] = tested on: 786-0 renal
[2] = tested on: A498 renal
[3] = tested on: A549 NSCLC
[4] = tested on: ACHN renal
[5] = tested on: BT-549 breast
[6] = tested on: CAKI-1 renal
[7] = tested on: COLO 205 colon
[8] = tested on: DU-145 prostate
[9] = tested on: EKVX NSCLC
[10] = tested on: HCT-116 colon
[11] = tested on: HCT-15 colon
[12] = tested on: HL-60(TB) leukemia
[13] = tested on: HOP-62 NSCLC
[14] = tested on: HOP-92 NSCLC
[15] = tested on: HS 578T breast
[16] = tested on: HT29 colon
[17] = tested on: IGROV1 ovarian
[18] = tested on: K-562 leukemia
[19] = tested on: KM12 colon
[20] = tested on: LOX IMVI melanoma
[21] = tested on: M14 melanoma
[22] = tested on: MCF7 breast
[23] = tested on: MDA-MB-231 breast
[24] = tested on: MDA-MB-435
[25] = tested on: MOLT-4 leukemia
[26] = tested on: NCI-H226 lung
[27] = tested on: NCI-H23 lung
[28] = tested on: NCI-H460 lung
[29] = tested on: NCI-H522 lung
[30] = tested on: NCI/ADR-RES ovarian
[31] = tested on: OVCAR-3 ovarian
[32] = tested on: OVCAR-4 ovarian
[33] = tested on: OVCAR-5 ovarian
[34] = tested on: OVCAR-8 ovarian
[35] = tested on: PC-3 prostate
[36] = tested on: RPMI-8226 leukemia
[37] = tested on: RXF 393 renal
[38] = tested on: SF-268 CNS
[39] = tested on: SF-295 CNS
[40] = tested on: SF-539 CNS
[41] = tested on: SK-MEL-2 melanoma
[42] = tested on: SK-MEL-28 melanoma
[43] = tested on: SK-MEL-5 melanoma
[44] = tested on: SK-OV-3 ovarian
[45] = tested on: SN12C renal
[46] = tested on: SNB-19 CNS
[47] = tested on: SNB-75 CNS
[48] = tested on: SR leukemia
[49] = tested on: SW-620 colon
[50] = tested on: TK-10 renal
[51] = tested on: U251 CNS
[52] = tested on: UACC-257 melanoma
[53] = tested on: UACC-62 melanoma
[54] = tested on: UO-31 renal
[55] = tested on: CCRF-CEM leukemia
[56] = tested on: HCC-2998 colon
[57] = tested on: MALME-3M melanoma
[58] = tested on: T-47D breast

SMILES: N#CC(C#N)=C1CCOc2ccc(F)cc21
- GI50 [1]: 16.2 µM
- TGI [1]: 32.8 µM
- GI50 [2]: 23 µM
- TGI [2]: 49.9 µM
- GI50 [3]: 26 µM
- TGI [3]: > 100 µM
- GI50 [4]: 13.3 µM
- TGI [4]: 26 µM
- GI50 [5]: 53.4 µM
- TGI [5]: > 100 µM
- GI50 [6]: 15.4 µM
- TGI [6]: 51.9 µM
- GI50 [7]: 21.7 µM
- TGI [7]: 67.6 µM
- GI50 [8]: 14 µM
- TGI [8]: 34.6 µM
- TGI [9]: 9.3 µM
- GI50 [10]: 8.86 µM
- TGI [10]: 21 µM
- GI50 [11]: 15.5 µM
- TGI [11]: 30.3 µM
- GI50 [12]: 66.5 µM
- TGI [12]: > 100 µM
- GI50 [13]: 13.2 µM
- TGI [13]: 25.9 µM
- GI50 [14]: 2.05 µM
- TGI [14]: 15.9 µM
- GI50 [15]: 0.289 µM
- TGI [15]: 41.6 µM
- GI50 [16]: 64.2 µM
- TGI [16]: > 100 µM
- GI50 [17]: 17.4 µM
- TGI [17]: 57 µM
- GI50 [18]: 50.4 µM
- TGI [18]: > 100 µM
- GI50 [19]: 49.7 µM
- TGI [19]: > 100 µM
- GI50 [20]: 11.7 µM
- TGI [20]: 23.9 µM
- GI50 [21]: 19.5 µM
- TGI [21]: 45.9 µM
- GI50 [22]: 11.3 µM
- TGI [22]: 23.3 µM
- GI50 [23]: 13 µM
- TGI [23]: 25.7 µM
- GI50 [24]: > 100 µM
- TGI [24]: > 100 µM
- GI50 [25]: 16.2 µM
- TGI [25]: 29.7 µM
- GI50 [26]: 18 µM
- TGI [26]: 53.7 µM
- GI50 [27]: 14.8 µM
- TGI [27]: 28.7 µM
- GI50 [28]: 14.2 µM
- TGI [28]: 30.4 µM
- GI50 [29]: > 100 µM
- TGI [29]: > 100 µM
- GI50 [30]: 16.1 µM
- TGI [30]: 29.6 µM
- GI50 [31]: 11.9 µM
- TGI [31]: 24.2 µM
- GI50 [32]: 14.6 µM
- TGI [32]: 27.8 µM
- GI50 [33]: 16.4 µM
- TGI [33]: 39.9 µM
- GI50 [34]: 19 µM
- TGI [34]: 43.7 µM
- GI50 [35]: 13.9 µM
- TGI [35]: 26.8 µM
- GI50 [36]: 17.4 µM
- TGI [36]: 38.4 µM
- GI50 [37]: 17.4 µM
- TGI [37]: 33.5 µM
- GI50 [38]: 14.6 µM
- TGI [38]: 48.4 µM
- GI50 [39]: 16.9 µM
- TGI [39]: 41 µM
- GI50 [40]: 12.4 µM
- TGI [40]: 24.9 µM
- GI50 [41]: > 100 µM
- TGI [41]: > 100 µM
- GI50 [42]: > 100 µM
- TGI [42]: > 100 µM
- GI50 [43]: 33.2 µM
- TGI [43]: > 100 µM
- GI50 [44]: 16.3 µM
- TGI [44]: 30.7 µM
- GI50 [45]: 19.8 µM
- TGI [45]: 40.1 µM
- GI50 [46]: 27.3 µM
- TGI [46]: 96.1 µM
- GI50 [47]: 22.7 µM
- TGI [47]: 81.9 µM
- GI50 [48]: 12.6 µM
- TGI [48]: 25.2 µM
- GI50 [49]: 29.6 µM
- TGI [49]: > 100 µM
- GI50 [50]: 14.1 µM
- TGI [50]: 33.3 µM
- GI50 [51]: 11.2 µM
- TGI [51]: 23.2 µM
- GI50 [52]: > 100 µM
- TGI [52]: > 100 µM
- GI50 [53]: 11.3 µM
- TGI [53]: 28.9 µM
- GI50 [54]: 56.3 µM
- TGI [54]: > 100 µM

SMILES: COc1cc(N2C(=O)[C@H](c3ccccc3)C2c2ccc(SC)cc2)cc(OC)c1OC (some centres not stated)
- GI50 [1]: 0.0349 µM
- TGI [1]: 22.9 µM
- GI50 [2]: 0.0232 µM
- TGI [2]: 0.078 µM
- GI50 [3]: 0.0374 µM
- TGI [3]: > 100 µM
- GI50 [4]: 0.0454 µM
- TGI [4]: > 100 µM
- GI50 [5]: 0.0299 µM
- TGI [5]: 0.0937 µM
- GI50 [6]: 0.0463 µM
- TGI [6]: > 100 µM
- GI50 [55]: 0.0377 µM
- TGI [55]: > 100 µM
- GI50 [7]: 0.0367 µM
- TGI [7]: 1.46 µM
- GI50 [8]: 0.0373 µM
- TGI [8]: > 100 µM
- GI50 [9]: 0.0513 µM
- TGI [9]: > 100 µM
- GI50 [56]: 0.0438 µM
- TGI [56]: > 100 µM
- GI50 [10]: 0.0317 µM
- TGI [10]: 1.17 µM
- GI50 [11]: 0.034 µM
- TGI [11]: > 100 µM
- GI50 [12]: 0.023 µM
- TGI [12]: 0.0666 µM
- GI50 [13]: 0.0788 µM
- TGI [13]: > 100 µM
- GI50 [14]: 0.031 µM
- TGI [14]: 16.5 µM
- GI50 [15]: 0.0653 µM
- TGI [15]: > 100 µM
- GI50 [16]: 0.0324 µM
- TGI [16]: 1.76 µM
- GI50 [17]: 0.0432 µM
- TGI [17]: > 100 µM
- GI50 [18]: 0.037 µM
- TGI [18]: > 100 µM
- GI50 [19]: 0.0352 µM
- TGI [19]: > 100 µM
- GI50 [20]: 0.0352 µM
- TGI [20]: > 100 µM
- GI50 [57]: > 100 µM
- TGI [57]: > 100 µM
- GI50 [22]: 0.0352 µM
- TGI [22]: > 100 µM
- GI50 [23]: 0.0321 µM
- TGI [23]: 15.2 µM
- GI50 [25]: 0.04 µM
- TGI [25]: > 100 µM
- GI50 [26]: 0.0301 µM
- TGI [26]: > 100 µM
- GI50 [27]: 0.0502 µM
- TGI [27]: > 100 µM
- GI50 [28]: 0.0346 µM
- TGI [28]: > 100 µM
- GI50 [29]: 0.0232 µM
- TGI [29]: 0.0734 µM
- GI50 [30]: 0.0335 µM
- TGI [30]: > 100 µM
- GI50 [31]: 0.0265 µM
- TGI [31]: 0.0667 µM
- GI50 [32]: 0.0545 µM
- TGI [32]: > 100 µM
- GI50 [33]: 0.0613 µM
- TGI [33]: > 100 µM
- GI50 [34]: 0.0388 µM
- TGI [34]: > 100 µM
- GI50 [35]: 0.0428 µM
- TGI [35]: > 100 µM
- GI50 [36]: 0.0416 µM
- TGI [36]: 7.68 µM
- GI50 [37]: 0.038 µM
- TGI [37]: > 100 µM
- GI50 [38]: 0.0485 µM
- TGI [38]: > 100 µM
- GI50 [39]: 0.0352 µM
- TGI [39]: 6.94 µM
- GI50 [40]: 0.0255 µM
- TGI [40]: 0.0697 µM
- GI50 [41]: 0.0489 µM
- TGI [41]: > 100 µM
- GI50 [43]: 0.0266 µM
- TGI [43]: 0.0821 µM
- GI50 [44]: 0.0676 µM
- TGI [44]: > 100 µM
- GI50 [45]: 0.05 µM
- TGI [45]: > 100 µM
- GI50 [46]: 0.0422 µM
- TGI [46]: > 100 µM
- GI50 [47]: 0.04 µM
- TGI [47]: > 100 µM
- GI50 [48]: 0.0411 µM
- TGI [48]: > 100 µM
- GI50 [49]: 0.0382 µM
- TGI [49]: > 100 µM
- GI50 [58]: > 100 µM
- TGI [58]: > 100 µM
- GI50 [50]: 0.638 µM
- TGI [50]: > 100 µM
- GI50 [51]: 0.0375 µM
- TGI [51]: > 100 µM
- GI50 [52]: 1.66 µM
- TGI [52]: > 100 µM
- GI50 [53]: 0.0484 µM
- TGI [53]: 8.86 µM
- GI50 [54]: 0.738 µM
- TGI [54]: > 100 µM
